# Earlier results as cited in patent publication US20100069398A1, “Combination therapy” (priority 2004, published 2010).
# Tested on: tumour models
# Conditions: once-daily oral administration, range of models
smiles,measurement,value
"COc1cc2c(Nc3ccc(Br)cc3F)ncnc2cc1OCC1CCN(C)CC1 [ZD6474, 4-(4-bromo-2-fluoroanilino)-6-methoxy-7-(1-methylpiperidin-4-ylmethoxy)quinazoline]",anti-tumour activity,broad-spectrum anti-tumour activity
